From the supplement of paper PMC8671470

Tested on: HEL
Assay: cell viability (% survival relative to DMSO control, bortezomib = 0%); higher = less cytotoxic
Settings: 1000 nM; 72 h
How it was run: (§1)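 Percent survival is reported as the mean of duplicate wells. Cells from 10 AML and 5 CML lines were plated in 384-well plates containing compounds at 1, 10, 100, 1000 or 10000 nM and kept for 72 h at 37 °C in 5% CO2. Readout used CellTiter-Glo luminescence, scaled so that vehicle equals 100% and a 10 µM positive control equals 0%.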

Row | Structure (SMILES) | cell viability
1 | Cc1cn([C@H]2C[C@H](O)[C@@H](COP(=O)(O)OP(=O)(O)O)O2)c(=O)[nH]c1=O [Thymidine diphosphate] | 106%
2 | CN(C)c1cc(NC(=O)CNC(C)(C)C)c(O)c2c1C[C@H]1C[C@H]3[C@H](N(C)C)C(=O)C(C(N)=O)C(=O)[C@@]3(O)C(=O)C1C2=O (stereo partly drawn) [Tigecycline] | 99.7%
3 | COc1ccc2c(C(=S)N(C)CC(=O)O)cccc2c1C(F)(F)F [Tolrestat] | 93%
4 | CC[C@@]1(O)C(=O)OCc2c1cc1n(c2=O)Cc2cc3c(CN(C)C)c(O)ccc3nc2-1 [Topotecan] | 0.373%
5 | CCC(=O)N1CCN(c2ccc(-n3c(=O)ccc4cnc5ccc(-c6cnc7ccccc7c6)cc5c43)cc2C(F)(F)F)CC1 [Torin1] | 36.4%

Same assay, conditions: 10000 nM; 72 h

Row | Structure (SMILES) | cell viability
6 | O[C@H]1[C@H]2[C@H](O)CCCN2C[C@H]1O [Swainsonine] | 92.5%
7 | Cc1coc2c1C(=O)C(=O)c1c-2ccc2c1CCCC2(C)C [Tanshinone IIA] | 97.9%
8 | Cc1cn([C@H]2C[C@H](O)[C@@H](COP(=O)(O)OP(=O)(O)O)O2)c(=O)[nH]c1=O [Thymidine diphosphate] | 103%
9 | CN(C)c1cc(NC(=O)CNC(C)(C)C)c(O)c2c1C[C@H]1C[C@H]3[C@H](N(C)C)C(=O)C(C(N)=O)C(=O)[C@@]3(O)C(=O)C1C2=O (stereo partly drawn) [Tigecycline] | 71.6%
10 | COc1ccc2c(C(=S)N(C)CC(=O)O)cccc2c1C(F)(F)F [Tolrestat] | 101%
11 | CC[C@@]1(O)C(=O)OCc2c1cc1n(c2=O)Cc2cc3c(CN(C)C)c(O)ccc3nc2-1 [Topotecan] | 0.268%
12 | CCC(=O)N1CCN(c2ccc(-n3c(=O)ccc4cnc5ccc(-c6cnc7ccccc7c6)cc5c43)cc2C(F)(F)F)CC1 [Torin1] | 14.7%

Tested on: K-562
Assay: as above
Settings: 1 nM; 72 h
How it was run: as §1

Row | Structure (SMILES) | cell viability
13 | O[C@H]1[C@H]2[C@H](O)CCCN2C[C@H]1O [Swainsonine] | 109%
14 | Cc1coc2c1C(=O)C(=O)c1c-2ccc2c1CCCC2(C)C [Tanshinone IIA] | 98.1%
15 | Cc1cn([C@H]2C[C@H](O)[C@@H](COP(=O)(O)OP(=O)(O)O)O2)c(=O)[nH]c1=O [Thymidine diphosphate] | 104%
16 | CN(C)c1cc(NC(=O)CNC(C)(C)C)c(O)c2c1C[C@H]1C[C@H]3[C@H](N(C)C)C(=O)C(C(N)=O)C(=O)[C@@]3(O)C(=O)C1C2=O (stereo partly drawn) [Tigecycline] | 102%
17 | COc1ccc2c(C(=S)N(C)CC(=O)O)cccc2c1C(F)(F)F [Tolrestat] | 95.4%
18 | CC[C@@]1(O)C(=O)OCc2c1cc1n(c2=O)Cc2cc3c(CN(C)C)c(O)ccc3nc2-1 [Topotecan] | 90.8%
19 | CCC(=O)N1CCN(c2ccc(-n3c(=O)ccc4cnc5ccc(-c6cnc7ccccc7c6)cc5c43)cc2C(F)(F)F)CC1 [Torin1] | 108%

Same assay, conditions: 10 nM; 72 h

Row | Structure (SMILES) | cell viability
20 | O[C@H]1[C@H]2[C@H](O)CCCN2C[C@H]1O [Swainsonine] | 107%
21 | Cc1coc2c1C(=O)C(=O)c1c-2ccc2c1CCCC2(C)C [Tanshinone IIA] | 104%
22 | Cc1cn([C@H]2C[C@H](O)[C@@H](COP(=O)(O)OP(=O)(O)O)O2)c(=O)[nH]c1=O [Thymidine diphosphate] | 91.1%
23 | CN(C)c1cc(NC(=O)CNC(C)(C)C)c(O)c2c1C[C@H]1C[C@H]3[C@H](N(C)C)C(=O)C(C(N)=O)C(=O)[C@@]3(O)C(=O)C1C2=O (stereo partly drawn) [Tigecycline] | 93.4%
24 | COc1ccc2c(C(=S)N(C)CC(=O)O)cccc2c1C(F)(F)F [Tolrestat] | 104%
25 | CC[C@@]1(O)C(=O)OCc2c1cc1n(c2=O)Cc2cc3c(CN(C)C)c(O)ccc3nc2-1 [Topotecan] | 92.7%
26 | CCC(=O)N1CCN(c2ccc(-n3c(=O)ccc4cnc5ccc(-c6cnc7ccccc7c6)cc5c43)cc2C(F)(F)F)CC1 [Torin1] | 87%

Same assay, conditions: 100 nM; 72 h

Row | Structure (SMILES) | cell viability
27 | O[C@H]1[C@H]2[C@H](O)CCCN2C[C@H]1O [Swainsonine] | 102%
28 | Cc1coc2c1C(=O)C(=O)c1c-2ccc2c1CCCC2(C)C [Tanshinone IIA] | 104%
29 | Cc1cn([C@H]2C[C@H](O)[C@@H](COP(=O)(O)OP(=O)(O)O)O2)c(=O)[nH]c1=O [Thymidine diphosphate] | 105%
30 | CN(C)c1cc(NC(=O)CNC(C)(C)C)c(O)c2c1C[C@H]1C[C@H]3[C@H](N(C)C)C(=O)C(C(N)=O)C(=O)[C@@]3(O)C(=O)C1C2=O (stereo partly drawn) [Tigecycline] | 92.1%
31 | COc1ccc2c(C(=S)N(C)CC(=O)O)cccc2c1C(F)(F)F [Tolrestat] | 87.4%
32 | CC[C@@]1(O)C(=O)OCc2c1cc1n(c2=O)Cc2cc3c(CN(C)C)c(O)ccc3nc2-1 [Topotecan] | 48.3%
33 | CCC(=O)N1CCN(c2ccc(-n3c(=O)ccc4cnc5ccc(-c6cnc7ccccc7c6)cc5c43)cc2C(F)(F)F)CC1 [Torin1] | 85.9%

Same assay, conditions: 1000 nM; 72 h

Row | Structure (SMILES) | cell viability
34 | O[C@H]1[C@H]2[C@H](O)CCCN2C[C@H]1O [Swainsonine] | 101%
35 | Cc1coc2c1C(=O)C(=O)c1c-2ccc2c1CCCC2(C)C [Tanshinone IIA] | 109%
36 | Cc1cn([C@H]2C[C@H](O)[C@@H](COP(=O)(O)OP(=O)(O)O)O2)c(=O)[nH]c1=O [Thymidine diphosphate] | 100%
37 | CN(C)c1cc(NC(=O)CNC(C)(C)C)c(O)c2c1C[C@H]1C[C@H]3[C@H](N(C)C)C(=O)C(C(N)=O)C(=O)[C@@]3(O)C(=O)C1C2=O (stereo partly drawn) [Tigecycline] | 90.6%
38 | COc1ccc2c(C(=S)N(C)CC(=O)O)cccc2c1C(F)(F)F [Tolrestat] | 99.8%
39 | CC[C@@]1(O)C(=O)OCc2c1cc1n(c2=O)Cc2cc3c(CN(C)C)c(O)ccc3nc2-1 [Topotecan] | 13.2%
40 | CCC(=O)N1CCN(c2ccc(-n3c(=O)ccc4cnc5ccc(-c6cnc7ccccc7c6)cc5c43)cc2C(F)(F)F)CC1 [Torin1] | 24.7%

Same assay, conditions: 10000 nM; 72 h

Row | Structure (SMILES) | cell viability
41 | O[C@H]1[C@H]2[C@H](O)CCCN2C[C@H]1O [Swainsonine] | 107%
42 | Cc1coc2c1C(=O)C(=O)c1c-2ccc2c1CCCC2(C)C [Tanshinone IIA] | 81.3%
43 | Cc1cn([C@H]2C[C@H](O)[C@@H](COP(=O)(O)OP(=O)(O)O)O2)c(=O)[nH]c1=O [Thymidine diphosphate] | 99.6%
44 | CN(C)c1cc(NC(=O)CNC(C)(C)C)c(O)c2c1C[C@H]1C[C@H]3[C@H](N(C)C)C(=O)C(C(N)=O)C(=O)[C@@]3(O)C(=O)C1C2=O (stereo partly drawn) [Tigecycline] | 83.4%
45 | COc1ccc2c(C(=S)N(C)CC(=O)O)cccc2c1C(F)(F)F [Tolrestat] | 105%
46 | CC[C@@]1(O)C(=O)OCc2c1cc1n(c2=O)Cc2cc3c(CN(C)C)c(O)ccc3nc2-1 [Topotecan] | 4.27%
47 | CCC(=O)N1CCN(c2ccc(-n3c(=O)ccc4cnc5ccc(-c6cnc7ccccc7c6)cc5c43)cc2C(F)(F)F)CC1 [Torin1] | 11.7%

Tested on: KG-1
Assay: as above
Settings: 1 nM; 72 h
How it was run: as §1

Row | Structure (SMILES) | cell viability
48 | O[C@H]1[C@H]2[C@H](O)CCCN2C[C@H]1O [Swainsonine] | 108%
49 | Cc1coc2c1C(=O)C(=O)c1c-2ccc2c1CCCC2(C)C [Tanshinone IIA] | 106%
50 | Cc1cn([C@H]2C[C@H](O)[C@@H](COP(=O)(O)OP(=O)(O)O)O2)c(=O)[nH]c1=O [Thymidine diphosphate] | 101%
51 | CN(C)c1cc(NC(=O)CNC(C)(C)C)c(O)c2c1C[C@H]1C[C@H]3[C@H](N(C)C)C(=O)C(C(N)=O)C(=O)[C@@]3(O)C(=O)C1C2=O (stereo partly drawn) [Tigecycline] | 111%
52 | COc1ccc2c(C(=S)N(C)CC(=O)O)cccc2c1C(F)(F)F [Tolrestat] | 91.8%
53 | CC[C@@]1(O)C(=O)OCc2c1cc1n(c2=O)Cc2cc3c(CN(C)C)c(O)ccc3nc2-1 [Topotecan] | 95.6%
54 | CCC(=O)N1CCN(c2ccc(-n3c(=O)ccc4cnc5ccc(-c6cnc7ccccc7c6)cc5c43)cc2C(F)(F)F)CC1 [Torin1] | 94.9%

Same assay, conditions: 10 nM; 72 h

Row | Structure (SMILES) | cell viability
55 | O[C@H]1[C@H]2[C@H](O)CCCN2C[C@H]1O [Swainsonine] | 107%
56 | Cc1coc2c1C(=O)C(=O)c1c-2ccc2c1CCCC2(C)C [Tanshinone IIA] | 97.7%
57 | Cc1cn([C@H]2C[C@H](O)[C@@H](COP(=O)(O)OP(=O)(O)O)O2)c(=O)[nH]c1=O [Thymidine diphosphate] | 95.2%
58 | CN(C)c1cc(NC(=O)CNC(C)(C)C)c(O)c2c1C[C@H]1C[C@H]3[C@H](N(C)C)C(=O)C(C(N)=O)C(=O)[C@@]3(O)C(=O)C1C2=O (stereo partly drawn) [Tigecycline] | 82.5%
59 | COc1ccc2c(C(=S)N(C)CC(=O)O)cccc2c1C(F)(F)F [Tolrestat] | 95.3%
60 | CC[C@@]1(O)C(=O)OCc2c1cc1n(c2=O)Cc2cc3c(CN(C)C)c(O)ccc3nc2-1 [Topotecan] | 91.2%
61 | CCC(=O)N1CCN(c2ccc(-n3c(=O)ccc4cnc5ccc(-c6cnc7ccccc7c6)cc5c43)cc2C(F)(F)F)CC1 [Torin1] | 89.7%

Same assay, conditions: 100 nM; 72 h

Row | Structure (SMILES) | cell viability
62 | O[C@H]1[C@H]2[C@H](O)CCCN2C[C@H]1O [Swainsonine] | 92.2%
63 | Cc1coc2c1C(=O)C(=O)c1c-2ccc2c1CCCC2(C)C [Tanshinone IIA] | 94.8%
64 | Cc1cn([C@H]2C[C@H](O)[C@@H](COP(=O)(O)OP(=O)(O)O)O2)c(=O)[nH]c1=O [Thymidine diphosphate] | 97.5%
65 | CN(C)c1cc(NC(=O)CNC(C)(C)C)c(O)c2c1C[C@H]1C[C@H]3[C@H](N(C)C)C(=O)C(C(N)=O)C(=O)[C@@]3(O)C(=O)C1C2=O (stereo partly drawn) [Tigecycline] | 104%
66 | COc1ccc2c(C(=S)N(C)CC(=O)O)cccc2c1C(F)(F)F [Tolrestat] | 95.6%
67 | CC[C@@]1(O)C(=O)OCc2c1cc1n(c2=O)Cc2cc3c(CN(C)C)c(O)ccc3nc2-1 [Topotecan] | 21.3%
68 | CCC(=O)N1CCN(c2ccc(-n3c(=O)ccc4cnc5ccc(-c6cnc7ccccc7c6)cc5c43)cc2C(F)(F)F)CC1 [Torin1] | 81.5%

Same assay, conditions: 1000 nM; 72 h

Row | Structure (SMILES) | cell viability
69 | O[C@H]1[C@H]2[C@H](O)CCCN2C[C@H]1O [Swainsonine] | 87.9%
70 | Cc1coc2c1C(=O)C(=O)c1c-2ccc2c1CCCC2(C)C [Tanshinone IIA] | 102%
71 | Cc1cn([C@H]2C[C@H](O)[C@@H](COP(=O)(O)OP(=O)(O)O)O2)c(=O)[nH]c1=O [Thymidine diphosphate] | 95.6%
72 | CN(C)c1cc(NC(=O)CNC(C)(C)C)c(O)c2c1C[C@H]1C[C@H]3[C@H](N(C)C)C(=O)C(C(N)=O)C(=O)[C@@]3(O)C(=O)C1C2=O (stereo partly drawn) [Tigecycline] | 94.8%
73 | COc1ccc2c(C(=S)N(C)CC(=O)O)cccc2c1C(F)(F)F [Tolrestat] | 93.5%
74 | CC[C@@]1(O)C(=O)OCc2c1cc1n(c2=O)Cc2cc3c(CN(C)C)c(O)ccc3nc2-1 [Topotecan] | 8.99%
75 | CCC(=O)N1CCN(c2ccc(-n3c(=O)ccc4cnc5ccc(-c6cnc7ccccc7c6)cc5c43)cc2C(F)(F)F)CC1 [Torin1] | 29.1%

Same assay, conditions: 10000 nM; 72 h

Row | Structure (SMILES) | cell viability
76 | O[C@H]1[C@H]2[C@H](O)CCCN2C[C@H]1O [Swainsonine] | 93.1%
77 | Cc1coc2c1C(=O)C(=O)c1c-2ccc2c1CCCC2(C)C [Tanshinone IIA] | 76.6%
78 | Cc1cn([C@H]2C[C@H](O)[C@@H](COP(=O)(O)OP(=O)(O)O)O2)c(=O)[nH]c1=O [Thymidine diphosphate] | 104%
